Experimental data as given in patent publication US5087640A, “Novel cyanoguanidine derivatives” (Kanebo, Ltd., priority 1989, dated 1992).

How the values were obtained:
[1] = test system: taenia caecum smooth muscle; assay: Smooth muscle relaxation (isolated guinea pig taenia caecum, organ bath); type: cell-based, guinia pigs; settings: Cavia porcellus; cumulative addition; papaverine (10^-4 M) relaxation taken as 100%; MOPS-PSS pH 7.4, 37°±1° C.; read-out: ED50 (dose achieving 50% relaxation)
Experimental: Male guinia pigs weighing 300-600 g were stunned by blow on the head. Taeniae were isolated from the caecum and cut into length of about 1 cm to prepare a plurality of test specimens. These specimens were suspended in an organ bath filled with MOPS-PSS containing 129.7 mM of NaC1, 5.9 mM of KC1, 2.54 mM of CaC12, 1.19 mM of MgC12, 10.0 mM of 3-(N-morpholino)propanesulfonic acid (MOPS) and 11.1 mM of glucose, pH 7.4. The bathing solution was continuously bubbled with 100% O2 gas and maintained at 37°±1° C. Resting tension of each specimen was adjusted to 1 g and the spontaneous response was recorded isotonically. The specimens were allowed to stabilize before starting the test. Test compound was cumulatively added to the bathing solution. A relaxation induced with papaverine (10^-4 M) was taken as 100% relaxation. The relaxation effect of each test compound was evaluated in terms of a dose achieving 50% relaxation (ED50) determined by the linear regression analysis.

[2] = Hypotensive activity in anesthetized dogs (mean blood pressure); type: in vivo, Mongrel dogs; settings: 30 μg/kg, i.v.; pentobarbital-anesthetized dogs
Experimental: Mongrel dogs of both sexes, weighing 11-22 kg, were anesthetized with sodium pentobarbital (30 mg/kg, i.v.). Mean blood pressure was measured with a carrier amplifier (Nihon Koden, AP-621G) via a pressure transducer (Nihon Koden, TP-200T) connected to the cannulated left femoral artery. Each test compound was dissolved in 0.9% saline containing 50% (v/v) ethanol and injected into the femoral vein in volumes of 0.1 ml/kg. The hypotensive effects of test compounds were evaluated in terms of the maximum decrease in the mean blood pressure (Δ mmHg) at a dose of 30 μg/kg.

in vivo = settings: rat, po, fasted male rats, deaths for 7 days, Weil's method
Experimental: Male rats weighing 70-210 g (3-5 rats/group) were fasted overnight and administered orally with the test compound suspended in 5% gum arabic solution. LD50 was calculated from the number of death for 7 days using the Weil's method.

K^+ channel = K^+ channel opening activity (^86 Rb^+ efflux from taenia caecum); type: cell-based, guinia pigs; settings: n = 5; efflux just before addition taken as 100%; 37°±1° C.
Experimental: In order to ascertain that the smooth muscle relaxation activity is proportional to the K^+ channel opening activity, the compound of Example B-2 was tested for the K^+ channel opening activity in comparison with pinacidil.
^86 Rb^+ efflux was selected as the indication of K^+ channel opening effect because the K^+ channels were considered to be selective also for Rb^+. In a similar manner to the test 1, specimens of taenia caecum were suspended in a test tube filled with MOPS-PSS. The bathing solution was continuously bubbled with 100% O2 gas and maintained at 37°±1° C. After an equilibration period for about 45 minutes, the specimens were loaded with ^86 Rb^+. The efflux from the specimens was measured using a scintillation counter at every 2 minutes interval. The efflux data were expressed in terms of the rate coefficient (the ^86 Rb^+ efflux just before the test compounds were added were taken as 100%). The effective dose (ED15) Producing 15% increase of the rate coefficient by the test compounds were calculated from the linear regression analysis.

EC50 [1] [nM] | SMILES | maximum decrease in the mean blood pressure, Δ mm Hg ± S.E. [2] [mm Hg] | LD50 at 168 h (in vivo) [mg/kg] | ED15 (dose producing 15% increase of the ^86 Rb^+ efflux rate coefficient) (K^+ channel) [nM]
54 | CCC(C)(C)N=C(NC#N)Nc1cc(F)cc(Cl)c1 [Ex. B-12, N-(3-chloro-5-fluorophenyl)-N'-cyano-N"-t-pentylguanidine] |  |  | 
66 | CC(C)(C)NC(=NC#N)Nc1cc(F)cc(Cl)c1 [Ex. B-11, N-t-butyl-N'-(3-chloro-5-fluorophenyl)-N"-cyanoguanidine] | -19.2 ± 4.4 |  | 
21 | CC(C)(C)NC(=Nc1cc(Br)cc(Br)c1)NC#N [Ex. B-9, N-t-butyl-N'-cyano-N"-(3,5-dibromophenyl)guanidine] |  |  | 
180 | CC(N=C(NC#N)Nc1cc(Cl)cc(Cl)c1)C(C)(C)C (centres unmarked) [Ex. B-6, N-cyano-N'-(3,5-dichlorophenyl)-N"-(1,2,2-trimethylpropyl)guanidine] |  |  | 
58 | CC(C)C(C)(C)N=C(NC#N)Nc1cc(Cl)cc(Cl)c1 [Ex. B-4, N-cyano-N'-(3,5-dichlorophenyl)-N"-(1,1,2-trimethylpropyl)guanidine] |  |  | 
180 | CC(C)(C)NC(=Nc1cc(F)cc(F)c1)NC#N [Ex. B-8, N-t-butyl-N'-cyano-N"-(3,5-difluorophenyl)guanidine] |  |  | 
> 100000 | CC(C)(C)NC(=Nc1c(Cl)cccc1Cl)NC#N [Compd. B, N-t-butyl-N'-cyano-N"-(2,6-dichlorophenyl)guanidine, reference compound] |  |  | 
35 | CCCC(C)(C)N=C(NC#N)Nc1cc(Cl)cc(Cl)c1 [Ex. B-3, N-cyano-N'-(3,5-dichlorophenyl)-N"-(1,1-dimethylbutyl)guanidine] | -22.9 ± 3.2 |  | 
2000 | CC(N=C(NC#N)Nc1ccncc1)C(C)(C)C.O (centres unmarked) [Pinacidil, N-cyano-N'-(4-pyridyl)-N"-(1,2,2-trimethylpropyl)guanidine monohydrate, reference compound] | -11.3 ± 1.1 |  | 24000
19 | CCC(C)(C)N=C(NC#N)Nc1cc(Br)cc(Br)c1 [Ex. B-10, N-cyano-N'-(3,5-dibromophenyl)-N"-t-pentylguanidine] |  |  | 
2700 | CC(NC(=C[N+](=O)[O-])Nc1ccccc1)C(C)(C)C (centres unmarked) [Compd. C, 2-nitro-1-anilino-1-(1,2,2-trimethylpropyl)aminoethene, reference compound] |  |  | 
1800 | CCC(C)(C)NC(=Nc1ccccc1)NC#N [Compd. A, N-cyano-N'-t-pentyl-N"-phenylguanidine, reference compound] |  |  | 
180 | CCC(CC)(CC)N=C(NC#N)Nc1cc(Cl)cc(Cl)c1 [Ex. B-7, N-cyano-N'-(3,5-dichlorophenyl)-N"-(1,1-diethylpropyl)guanidine] |  |  | 

SMILES | EC50 [1] [nM] | maximum decrease in the mean blood pressure, Δ mm Hg ± S.E. [2] [mm Hg] | LD50 at 168 h (in vivo) [mg/kg] | ED15 (dose producing 15% increase of the ^86 Rb^+ efflux rate coefficient) (K^+ channel) [nM]
CCC(C)(CC)N=C(NC#N)Nc1cc(Cl)cc(Cl)c1 [Ex. B-5, N-cyano-N'-(3,5-dichlorophenyl)-N"-(1-ethyl-1-methylpropyl)guanidine] | 81 | -26.1 ± 1.8 | > 2000 | 
CC(C)(C)NC(=Nc1cc(Cl)cc(Cl)c1)NC#N [Ex. B-1, N-t-butyl-N'-cyano-N"-(3,5-dichlorophenyl)-guanidine] | 87 |  | > 2000 | 
CCC(C)(C)N=C(NC#N)Nc1cc(F)cc(Br)c1 [Ex. B-13, N-(3-bromo-5-fluorophenyl)-N'-cyano-N"-t-pentylguanidine] | 25 | -33.4 ± 0.9 | > 2000 | 
CCC(C)(C)N=C(NC#N)Nc1cc(Cl)cc(Cl)c1 [Ex. B-2, N-cyano-N'-(3,5-dichlorophenyl)-N"-t-pentylguanidine] | 26 | -19.1 ± 4.1 | > 2000 | 270
